Measurements published in paper PMC3038857, “Using Nuclear Receptor Activity to Stratify Hepatocarcinogens” (PLoS ONE, 2011).
Where two headings read alike, the source gives them in different places.

Key:
Rat Liver [1] = conditions: ref ToxRefDB, cited from earlier work
CYP3A4 = assay: CLZD_CYP3A4: Change in expression of CYP3A4 (primary human hepatocytes); type: cell-based; conditions: 24 hr
Method in brief: (§1)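 Read-out: mRNA change by multiplexed quantitative nuclease protection assay. Primary human hepatocytes; 5 concentrations, 0.004-40 µM; exposures 6, 24, 48 hr.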

[2] = target: T1, ESR1 (estrogen receptor 1) (Homo sapiens, UniProt P03372); assay: ATG_ERa_TRANS: Factorial reporter gene assay (HepG2); type: cell-based; conditions: HepG2
T1 construct: expressed in transfected cells; host or cells: HepG2
Description: (§2) A multiple reporter transcription unit (MRTU) library consisting of 48 transcription factor binding sites was transfected into the HepG2 human liver hepatoma cell line. In addition to the cis-acting reporter genes (CIS), a modification of the approach was used to generate a trans-system (TRANS) with a mammalian one-hybrid assay consisting of an additional 25 MRTU library reporting the activity of nuclear receptor super-family members. […] These assays were performed by Attagene Inc. (Morrisville NC) under contract to EPA.
(§3) In addition to the cis-acting reporter genes (CIS), a modification of the approach was used to generate a trans-system (TRANS) with a mammalian one-hybrid assay consisting of an additional 25 MRTU library reporting the activity of nuclear receptor super-family members. […] Chemicals were then tested in the CIS and TRANS assays at seven concentrations starting at the MTC and followed by three-fold serial dilutions. These assays were performed by Attagene Inc. (Morrisville NC) under contract to EPA. Detailed description of the methods, data and analysis methods for this dataset will be presented in a separate publication.

Rat Liver [3] = conditions: ref ToxRefDB, cited from earlier work; remark: listed apart in the source
CYP1A2 = assay: CLZD_CYP1A2: Change in expression of CYP1A2 (primary human hepatocytes); type: cell-based; conditions: 24 hr
Method in brief: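 Five-point concentration series (0.004-40 µM) applied to primary human hepatocytes; 6/24/48 hr timepoints; transcript quantified by multiplexed nuclease protection.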

Mouse Liver = conditions: chronic mouse study, liver; ref ToxRefDB; cited from earlier work
CYP2B6 = assay: CLZD_CYP2B6: Change in expression of CYP2B6 (primary human hepatocytes); type: cell-based; conditions: 24 hr
Method in brief: as §1

Rat Liver [4] = conditions: ref ToxRefDB, cited from earlier work; remark: listed apart in the source
PXR (NR1I2) [5] = target: T2, PXR (NR1I2) (Homo sapiens, UniProt O75469); assay: ATG_PXRE_CIS: Factorial reporter gene assay (HepG2); type: cell-based; parameters: endogenous in cells; host or cells: HepG2
T2 sequence (O75469 1-434): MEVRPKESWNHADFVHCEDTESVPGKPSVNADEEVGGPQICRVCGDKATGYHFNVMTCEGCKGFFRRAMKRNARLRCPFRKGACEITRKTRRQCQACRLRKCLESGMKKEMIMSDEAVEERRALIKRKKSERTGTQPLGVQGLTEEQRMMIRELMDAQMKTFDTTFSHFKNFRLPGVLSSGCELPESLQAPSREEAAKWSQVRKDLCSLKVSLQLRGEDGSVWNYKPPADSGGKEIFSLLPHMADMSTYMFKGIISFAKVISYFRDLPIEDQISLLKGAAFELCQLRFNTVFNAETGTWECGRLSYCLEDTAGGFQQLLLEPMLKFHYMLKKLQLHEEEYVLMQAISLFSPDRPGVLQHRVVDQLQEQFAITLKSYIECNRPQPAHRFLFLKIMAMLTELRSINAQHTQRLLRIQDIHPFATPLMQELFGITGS
Method in brief: (§4)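 Mammalian one-hybrid trans reporters (25 MRTUs) measured ERRg, FXR and PPARg; PXRE used cis reporters from a 48-site MRTU library. Both were run in HepG2. Dosing: seven concentrations, MTC as the highest, three-fold dilution series.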

[6] = target: T3, AHR (aryl hydrocarbon receptor) (Homo sapiens, UniProt P35869); assay: ATG_Ahr_CIS: Factorial reporter gene assay (multiplexed transcription reporter, HepG2); type: cell-based
T3 construct: endogenous in cells; host or cells: HepG2
T3 sequence (P35869 11-848): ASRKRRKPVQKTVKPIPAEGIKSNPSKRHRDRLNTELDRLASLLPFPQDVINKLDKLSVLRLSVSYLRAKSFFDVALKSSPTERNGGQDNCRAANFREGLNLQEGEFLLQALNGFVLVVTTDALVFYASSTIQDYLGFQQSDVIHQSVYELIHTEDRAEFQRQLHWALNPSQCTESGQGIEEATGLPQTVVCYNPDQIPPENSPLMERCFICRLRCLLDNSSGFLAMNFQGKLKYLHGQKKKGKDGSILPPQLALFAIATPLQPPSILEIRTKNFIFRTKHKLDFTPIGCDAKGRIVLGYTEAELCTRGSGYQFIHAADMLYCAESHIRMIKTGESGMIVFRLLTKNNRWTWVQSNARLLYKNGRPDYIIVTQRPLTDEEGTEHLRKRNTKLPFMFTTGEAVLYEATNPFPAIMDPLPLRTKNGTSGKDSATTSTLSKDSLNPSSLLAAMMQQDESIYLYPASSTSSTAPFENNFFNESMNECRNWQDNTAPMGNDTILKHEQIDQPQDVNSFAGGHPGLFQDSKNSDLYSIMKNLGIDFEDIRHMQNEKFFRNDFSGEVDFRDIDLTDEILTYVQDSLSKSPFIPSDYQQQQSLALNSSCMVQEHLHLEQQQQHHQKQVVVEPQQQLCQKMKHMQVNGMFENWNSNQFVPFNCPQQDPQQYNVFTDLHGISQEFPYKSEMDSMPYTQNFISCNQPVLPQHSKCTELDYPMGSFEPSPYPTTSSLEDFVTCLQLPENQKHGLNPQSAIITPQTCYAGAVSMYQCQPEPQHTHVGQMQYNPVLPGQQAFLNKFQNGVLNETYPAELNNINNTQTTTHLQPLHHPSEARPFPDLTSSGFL
Description: as §2, §3

[7] = target: T4, PPARG (peroxisome proliferator-activated receptor gamma) (Homo sapiens, UniProt P37231); assay: ATG_PPARg_TRANS: Factorial reporter gene assay (HepG2); type: cell-based; conditions: HepG2
T4 construct: expressed in transfected cells; host or cells: HepG2
T4 sequence (P37231 1-505): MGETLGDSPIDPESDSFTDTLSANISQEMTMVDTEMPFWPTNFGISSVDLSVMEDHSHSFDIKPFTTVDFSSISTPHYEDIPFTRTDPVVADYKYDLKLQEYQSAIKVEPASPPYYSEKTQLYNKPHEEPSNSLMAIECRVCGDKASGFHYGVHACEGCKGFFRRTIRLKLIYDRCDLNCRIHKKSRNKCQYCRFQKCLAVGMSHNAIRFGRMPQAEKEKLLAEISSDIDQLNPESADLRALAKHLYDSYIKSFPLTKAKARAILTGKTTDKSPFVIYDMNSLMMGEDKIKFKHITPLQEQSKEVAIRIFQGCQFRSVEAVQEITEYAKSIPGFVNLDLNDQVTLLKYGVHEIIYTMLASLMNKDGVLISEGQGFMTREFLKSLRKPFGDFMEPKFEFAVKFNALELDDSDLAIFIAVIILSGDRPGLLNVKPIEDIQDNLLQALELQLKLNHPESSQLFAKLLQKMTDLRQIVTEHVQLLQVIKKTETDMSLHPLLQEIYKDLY
Method in brief: as §4

PXR Human (NR1I2) = target: T5, PXR Human (NR1I2) (Homo sapiens, UniProt O75469); assay: NCGC_PXR_Agonist_human: GAL4 BLAM Reporter gene assay: PXR Human; type: cell-based; conditions: agonist mode
T5 sequence (O75469 146-434 limits assumed): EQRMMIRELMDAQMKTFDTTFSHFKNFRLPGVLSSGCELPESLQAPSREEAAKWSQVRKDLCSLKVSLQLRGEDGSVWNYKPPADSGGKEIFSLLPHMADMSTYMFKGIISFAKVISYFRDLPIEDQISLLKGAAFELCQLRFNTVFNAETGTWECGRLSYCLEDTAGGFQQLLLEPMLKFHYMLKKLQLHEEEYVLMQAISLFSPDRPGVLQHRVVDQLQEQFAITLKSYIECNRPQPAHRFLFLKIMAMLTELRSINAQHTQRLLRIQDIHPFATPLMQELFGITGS
Description: These assays measure binding constants and enzyme inhibition values for nuclear receptors. The targets include [drawing 67] , [drawing 68] , [drawing 69] , [drawing 70] , [drawing 71] , [drawing 72] , [drawing 73] , [drawing 74] , [drawing 75] and [drawing 76] . Each of the nuclear receptor targets was measured in agonist mode. Assays were run at the NIH Chemical Genomics Center (Rockville, MD).
Cell-based HTS Assays: These assays measuring binding constants and enzyme inhibition values for nuclear receptors. The targets include AR, ER, FXR, LXR, PPARα, PPARδ, PPARγ, RXRα, RXRβ and PXR. Each of the nuclear receptor targets was measured in both agonist and antagonist mode, but the antagonist data is still undergoing analysis due to possible interference between cytotoxicity and assay activity, so antagonist mode data were not used in the present analysis. Assays were run at the NIH Chemical Genomics Center (Rockville, MD) as part of the Tox21 collaboration. […] The R^2 was required to be ≥0.5. Values where only the highest concentration exceeded 50% activity were excluded to eliminate weak or false positives. Detailed description of the methods, data and analysis methods for this dataset will be presented in a separate publication.

PXR (NR1I2) [8] = target: T2, PXR (NR1I2); assay: ATG_PXR_TRANS: Factorial reporter gene assay (HepG2); type: cell-based; parameters: endogenous in cells; host or cells: HepG2; conditions: HepG2
Method in brief: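 HepG2 cells transfected with multiplexed reporter libraries: cis-acting binding-site reporters (CIS) and a one-hybrid nuclear-receptor trans system (TRANS). Chemicals tested at seven concentrations, starting at the maximum tolerated concentration with three-fold serial dilutions.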

T1 sequence (P03372 whole entry): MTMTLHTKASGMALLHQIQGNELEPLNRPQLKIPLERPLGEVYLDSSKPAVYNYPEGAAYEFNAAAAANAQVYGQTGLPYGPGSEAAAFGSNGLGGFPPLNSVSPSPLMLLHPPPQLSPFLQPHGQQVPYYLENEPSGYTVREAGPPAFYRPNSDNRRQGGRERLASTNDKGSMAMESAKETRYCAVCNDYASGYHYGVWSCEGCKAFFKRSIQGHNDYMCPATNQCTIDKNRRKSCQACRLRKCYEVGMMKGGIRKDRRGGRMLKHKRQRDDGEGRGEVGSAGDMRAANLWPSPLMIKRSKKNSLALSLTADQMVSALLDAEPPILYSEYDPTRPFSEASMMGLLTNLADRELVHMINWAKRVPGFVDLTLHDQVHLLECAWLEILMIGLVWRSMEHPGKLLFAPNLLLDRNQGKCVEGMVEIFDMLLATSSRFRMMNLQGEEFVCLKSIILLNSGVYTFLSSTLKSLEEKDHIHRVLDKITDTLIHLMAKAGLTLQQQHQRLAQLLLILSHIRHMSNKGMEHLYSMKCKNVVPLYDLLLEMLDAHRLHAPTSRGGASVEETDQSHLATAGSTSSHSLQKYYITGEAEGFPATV

Structure (SMILES)	CHR_Rat_Liver_2_PreneoplasticLesion (Rat Liver [1]; chronic rat study, liver)	CLZD_CYP3A4_24 (CYP3A4)	CHR_Rat_Liver_1_AnyLesion (Rat Liver [3]; chronic rat study, liver)	CLZD_CYP1A2_24 (CYP1A2)	CHR_Mouse_Liver_1_AnyLesion (Mouse Liver)	CLZD_CYP2B6_24 (CYP2B6)	CHR_Rat_Liver_3_NeoplasticLesion (Rat Liver [4]; chronic rat study, liver)	ATG_PXRE_CIS (PXR (NR1I2) [5]; HepG2)	ATG_Ahr_CIS ([6]; HepG2)	further results
CCCCC(C#N)(Cn1cncn1)c1ccc(Cl)cc1 (stereo not shown) [row 217]	0	5.217	6	5.223	6	4.948	0	4.886		ATG_ERa_TRANS [2]: 4.398
Nc1c(Cl)c(Cl)nc(C(=O)O)c1Cl [r245]				4.952				4.26	4.523	CHR_Rat_Liver_2_PreneoplasticLesion (Rat Liver [1]; rat, chronic study): 0; CHR_Rat_Liver_1_AnyLesion (Rat Liver [3]; rat, chronic study): 6; CHR_Rat_Liver_3_NeoplasticLesion (Rat Liver [4]; rat, chronic study): 0
O=c1n(Cl)c(=O)n(Cl)c(=O)n1Cl [r288]				5.117						ATG_Ahr_CIS ([6]; HepG2 reporter): 4.509; ATG_PXRE_CIS (PXR (NR1I2) [5]; HepG2 reporter): 4.337
CNC(=S)[S-].O.O.O.[Na+] [row 197]								4.167	4.444	ATG_PPARg_TRANS [7]: 4.569; NCGC_PXR_Agonist_human (PXR Human (NR1I2)): 4.503
COCC(=O)N(c1c(C)cccc1C)C(C)C(=O)OC (stereo not shown) [row 196]	0	4.985	6		6	5.11	0	4.796	4.149	ATG_PXR_TRANS (PXR (NR1I2) [8]): 4.854
